Series [1] deals with MRSA NRS384 (MRSA USA300). Description: MIC, broth microdilution. The format is cell-based, methicillin-resistant Staphylococcus aureus. The following applies: Staphylococcus aureus. A general note: Broth dilution looks for growth in wells or tubes with falling amounts of substance.
For series [2], the system named is Clostridium difficile ATCC BAA 1870. Put plainly: MIC, broth microdilution. The following applies: Clostridioides difficile, BAA1870, Clostridium difficile ATCC BAA 1870. It is filed as cell-based.
Series [3] concerns E. coli JW55031 (TolC mutant). Put plainly: MIC, broth microdilution. It is filed as cell-based. As to conditions: Escherichia coli.
Series [4] relates to Enterococcus faecalis ATCC 51299. Description: MIC, broth microdilution. As to conditions: ATCC51299. It is filed as cell-based.
Series [5] concerns Neisseria gonorrhoeae 181. Put plainly: MIC, broth microdilution. The format is cell-based. The following applies: Neisseria gonorrhoeae, 181, Neisseria gonorrhoeae 181.
In series [6] the test system is C. albicans SS5314 (wild type). Description: MIC, broth microdilution. The format is cell-based. The following applies: Candida albicans.
In series [7] the test system is Escherichia coli BW25113 (wild type). Description: MIC, broth microdilution. The format is cell-based.
The test system of series [8] is methicillin-resistant Staphylococcus aureus. Description: Time-kill assay. The format is cell-based. The following applies: 4 × MIC, 24 hours incubation at 37 °C.
In series [9] the test system is MRSA ATCC 43300. Put plainly: Inhibition zone, MIC and MBC. It is filed as cell-based, Staphylococcus aureus.
Series [10] concerns K. pneumonia ATCC 13883. Put plainly: Inhibition zone, MIC and MBC. The format is cell-based, Klebsiella pneumoniae.
In series [11] the test system is E. coli ATCC 25922. Description: Inhibition zone, MIC and MBC. It is filed as cell-based.
Series [12] relates to C. albicans ATCC 10231. Description: Inhibition zone, MIC and MBC. It is filed as cell-based. The following applies: Candida albicans, ATCC10231.
The test system of series [13] is P. aeruginosa ATCC 10145. Put plainly: Inhibition zone, MIC and MBC. The format is cell-based, Pseudomonas aeruginosa.
Series [14] deals with MRSA ATCC 43300. Put plainly: Biofilm formation inhibition, crystal violet assay. The format is cell-based, Staphylococcus aureus. The following applies: at the corresponding MIC.
Series [15] has as its system K. pneumonia ATCC 13883. Put plainly: Biofilm formation inhibition, crystal violet assay. It is filed as cell-based, Klebsiella pneumoniae. As to conditions: at the corresponding MIC.
Series [16] concerns E. coli ATCC 25922. Put plainly: Biofilm formation inhibition, crystal violet assay. The format is cell-based. As to conditions: at the corresponding MIC.
Series [17] has as its system C. albicans ATCC 10231. Description: Biofilm formation inhibition, crystal violet assay. The format is cell-based, Candida albicans. The following applies: at the corresponding MIC.
Series [18] concerns P. aeruginosa ATCC 10145. Description: Biofilm formation inhibition, crystal violet assay. As to conditions: at the corresponding MIC. The format is cell-based, Pseudomonas aeruginosa.
Series [19] has as its system human erythrocytes. Description: Hemolytic activity. It is filed as cell-based. The following applies: up to 64 μg mL^−1, 37 °C for 1 h.
Setting [20] is: Staphylococcus aureus, ATCC43300|MRSA.
Where [21] appears, read: Klebsiella pneumoniae, ATCC13883.
The mark [22] stands for this setting: Pseudomonas aeruginosa, ATCC10145.

SMILES strings stand for the structures. In brackets after ≈: the same amount, converted by molar mass.

On to `CC(=O)NC[C@H]1CN(c2ccc(N3CCOCC3)c(F)c2)C(=O)O1` [Linezolid, reference compound], for which the MIC (usually the lowest concentration that inhibits growth of the organism) in series [1] was 1 µg/mL (≈ 2.96 µM); in [2], 1 µg/mL (≈ 2.96 µM); in series [3], 8 µg/mL (≈ 23.7 µM); in [4], 1 µg/mL (≈ 2.96 µM); in series [5], 64 µg/mL (≈ 190 µM); in series [6], > 64 µg/mL.

Take `CC(=NNC(=N)N)c1nnn(-c2ccc(C#Cc3ccccc3)cc2)c1C` [Compound 30, 2-(1-(5-Methyl-1-(4-(phenylethynyl)phenyl)-1H-1,2,3-triazol-4-yl)ethylidene)hydrazine-1-carboximidamide]: the minimal inhibitory concentration (MIC) is ≤ 4 µg/mL in series [1]; > 64 µg/mL in series [2]; 16 µg/mL (≈ 44.8 µM) in series [3]; 16 µg/mL (≈ 44.8 µM) in series [4]; > 64 µg/mL in series [5]; 8 µg/mL (≈ 22.4 µM) in series [6]. Besides, the minimum inhibitory concentration (MIC) in series [7] is > 64 µg/mL. For the same compound, the “time to complete bacterial eradication” value in series [8] is ≤ 24 h.

On to `CNC(C)C1CCC(N)C(OC2C(N)CC(N)C(OC3OCC(C)(O)C(NC)C3O)C2O)O1` (stereo not shown) [Gentamicin, reference compound], for which the MIC in series [3] was found to be 0.25 µg/mL (≈ 0.523 µM).

On to `CC(=NNC(=N)N)c1nnn(-c2ccc(C#CC3CC3)cc2)c1C` [Compound 24, 2-(1-(1-(4-(Cyclopropylethynyl)phenyl)-5-methyl-1H-1,2,3-triazol-4-yl)ethylidene)hydrazine-1-carboximidamide], for which the MIC was 64 µg/mL (≈ 199 µM) in series [1]; 64 µg/mL (≈ 199 µM) in series [2]; 64 µg/mL (≈ 199 µM) in series [3]; > 64 µg/mL in [4]; > 64 µg/mL in [5]; > 64 µg/mL in series [6]. Besides, the minimal inhibitory concentration (MIC) in series [7] is > 64 µg/mL.

`CN(C)[C@@H]1C(O)=C(C(N)=O)C(=O)[C@@]2(O)C(O)=C3C(=O)c4c(O)cccc4[C@@](C)(O)[C@H]3C[C@@H]12` [Tetracycline, reference compound] came in with a minimal inhibitory concentration (MIC) in [5] of 2 µg/mL (≈ 4.5 µM).

For the compound `CO/N=C(\C(=O)N[C@@H]1C(=O)N2C(C(=O)O)=C(CSc3nc(=O)c(=O)[nH]n3C)CS[C@H]12)c1csc(N)n1` [Ceftriaxone], the IZD turned out to be 30.34 ± 1.24 millimeters in series [9] (MRSA ATCC 43300, mean ± SD); 34.34 ± 0.47 millimeters in series [10] (K. pneumonia ATCC 13883, mean ± SD); 36 ± 1.50 millimeters in series [11] (E. coli ATCC 25922, mean ± SD); 35 ±1.85 millimeters in series [13] (P. aeruginosa ATCC 10145, mean ± SD). Also, the MBC in [9] (setting [20]) worked out at 8 µg/mL (≈ 14.4 µM); in [10] (setting [21]), 8 µg/mL (≈ 14.4 µM); in [11] (Escherichia coli, ATCC25922) it was 32 µg/mL (≈ 57.7 µM); in series [12], 31.2 µg/mL (≈ 56.3 µM); in series [13] (setting [22]) it was 16 µg/mL (≈ 28.9 µM). In addition, the MIC worked out at 8 µg/mL (≈ 14.4 µM) in series [9] (setting [20]); 4 µg/mL (≈ 7.21 µM) in series [10] (setting [21]); 16 µg/mL (≈ 28.9 µM) in series [11] (Escherichia coli, ATCC25922); 7.8 µg/mL (≈ 14.1 µM) in series [12]; 8 µg/mL (≈ 14.4 µM) in series [13] (setting [22]). Besides, the “Inhibition of biofilm formation (%)” value in series [14] was determined as 73.262 ± 0.21%; in series [15], 61.23 ± 0.22%; in [16], 59.14 ± 0.16%; in series [17], 82.50 ± 0.14%; in series [18] it was 74.39 ± 0.68%.

With `CCCCC#Cc1ccc(-n2nnc(C(C)=NNC(=N)N)c2C)cc1` [Compound 21, 2-(1-(1-(4-(Hex-1-yn-1-yl)phenyl)-5-methyl-1H-1,2,3-triazol-4-yl)ethylidene)hydrazine-1-carboximidamide], the MIC in series [1] is 32 µg/mL (≈ 94.8 µM); in [2] it was 16 µg/mL (≈ 47.4 µM); in series [3], 32 µg/mL (≈ 94.8 µM); in series [4], 32 µg/mL (≈ 94.8 µM); in [5] it was > 64 µg/mL; in [6], 16 µg/mL (≈ 47.4 µM). Further, in [7], the MIC was > 64 µg/mL.

As to `CC(=NNC(=N)N)c1nnn(-c2ccc(C#CC3CCCCC3)cc2)c1C` [Compound 26, 2-(1-(1-(4-(Cyclohexylethynyl)phenyl)-5-methyl-1H-1,2,3-triazol-4-yl)ethylidene)hydrazine-1-carboximidamide], the MIC is 16 µg/mL (≈ 44 µM) in series [1]; 16 µg/mL (≈ 44 µM) in series [2]; 64 µg/mL (≈ 176 µM) in series [3]; 8 µg/mL (≈ 22 µM) in series [4]; > 64 µg/mL in series [5]; 16 µg/mL (≈ 44 µM) in [6]. Further, the minimal inhibitory concentration (MIC) in [7] is > 64 µg/mL.

On to `O=C(O)c1cn(C2CC2)c2cc(N3CCNCC3)c(F)cc2c1=O` [ciprofloxacin], for which the hemolytic activity in series [19] was 15%.

As for `CC(=NNC(=N)N)c1nnn(-c2ccc(C#CC3CCCC3)cc2)c1C` [Compound 25, 2-(1-(1-(4-(Cyclopentylethynyl)phenyl)-5-methyl-1H-1,2,3-triazol-4-yl)ethylidene)hydrazine-1-carboximidamide], the MIC in series [1] is 64 µg/mL (≈ 183 µM); in series [2], > 64 µg/mL; in series [3] it was 64 µg/mL (≈ 183 µM); in series [4], > 64 µg/mL; in [5], 64 µg/mL (≈ 183 µM); in series [6], > 64 µg/mL. In addition, the MIC in [7] is > 64 µg/mL.

For `CC(=NNC(=N)N)c1nnn(-c2ccc(C#Cc3ccc(C)cc3)cc2)c1C` [Compound 31, 2-(1-(5-Methyl-1-(4-(p-tolylethynyl)phenyl)-1H-1,2,3-triazol-4-yl)ethylidene)hydrazine-1-carboximidamide], the minimal inhibitory concentration (MIC) in [1] is 8 µg/mL (≈ 21.5 µM); in series [2], 2 µg/mL (≈ 5.38 µM); in [3], 4 µg/mL (≈ 10.8 µM); in [4], 8 µg/mL (≈ 21.5 µM); in series [5], > 64 µg/mL; in [6], 2 µg/mL (≈ 5.38 µM). In addition, the MIC in series [7] was > 64 µg/mL.

Regarding `CCCCCCC#Cc1ccc(-n2nnc(C(C)=NNC(=N)N)c2C)cc1` [Compound 22, 2-(1-(1-(4-(Oct-1-yn-1-yl)phenyl)-5-methyl-1H-1,2,3-triazol-4-yl)ethylidene)hydrazine-1-carboximidamide], the minimum inhibitory concentration (MIC) in [1] was 64 µg/mL (≈ 175 µM); in series [2], 64 µg/mL (≈ 175 µM); in [3], 64 µg/mL (≈ 175 µM); in series [4] it was 64 µg/mL (≈ 175 µM); in [5], > 64 µg/mL; in series [6] it was 64 µg/mL (≈ 175 µM). Further, the MIC in series [7] was > 64 µg/mL.

`CN[C@H](CC(C)C)C(=O)N[C@H]1C(=O)N[C@@H](CC(N)=O)C(=O)N[C@H]2C(=O)N[C@H]3C(=O)N[C@H](C(=O)N[C@H](C(=O)O)c4cc(O)cc(O)c4-c4cc3ccc4O)[C@H](O)c3ccc(c(Cl)c3)Oc3cc2cc(c3O[C@@H]2O[C@H](CO)[C@@H](O)[C@H](O)[C@H]2O[C@H]2C[C@](C)(N)[C@H](O)[C@H](C)O2)Oc2ccc(cc2Cl)[C@H]1O` [Vancomycin, reference compound]: the MIC in series [1] was 1 µg/mL (≈ 0.69 µM); in series [2], 1 µg/mL (≈ 0.69 µM); in [3], 16 µg/mL (≈ 11 µM); in [4] it was 64 µg/mL (≈ 44.2 µM); in series [5], > 64 µg/mL; in series [6], > 64 µg/mL. Further, the “time to complete bacterial eradication” value in series [8] is listed as “about 24 hours”.

On to `CCCC#Cc1ccc(-n2nnc(C(C)=NNC(=N)N)c2C)cc1` [Compound 19, 2-(1-(5-Methyl-1-(4-(pent-1-yn-1-yl)phenyl)-1H-1,2,3-triazol-4-yl)ethylidene)hydrazine-1-carboximidamide], for which the minimal inhibitory concentration (MIC) turned out to be 32 µg/mL (≈ 98.9 µM) in series [1]; 32 µg/mL (≈ 98.9 µM) in [2]; 32 µg/mL (≈ 98.9 µM) in series [3]; 8 µg/mL (≈ 24.7 µM) in series [4]; 64 µg/mL (≈ 198 µM) in [5]; 16 µg/mL (≈ 49.5 µM) in series [6]. Moreover, in series [7], the minimum inhibitory concentration (MIC) is > 64 µg/mL.

In [6], `OC(Cn1cncn1)(Cn1cncn1)c1ccc(F)cc1F` [Fluconazole, reference compound] registered an MIC of 0.5 µg/mL (≈ 1.63 µM).

Regarding `CC(=NNC(=N)N)c1nnn(-c2ccc(C#CCC(C)C)cc2)c1C` [Compound 20, 2-(1-(5-Methyl-1-(4-(4-methylpent-1-yn-1-yl)phenyl)-1H-1,2,3-triazol-4-yl)ethylidene)hydrazine-1-carboximidamide], the MIC is ≤ 4 µg/mL in series [1]; 8 µg/mL (≈ 23.7 µM) in series [2]; 8 µg/mL (≈ 23.7 µM) in series [3]; 8 µg/mL (≈ 23.7 µM) in [4]; 32 µg/mL (≈ 94.8 µM) in series [5]; 8 µg/mL (≈ 23.7 µM) in [6]. The MIC in series [7] is > 64 µg/mL.
